Here are results for eleven compounds from paper PMC9500974, “Ultrasonic-Assisted Synthesis of Benzofuran Appended Oxadiazole Molecules as Tyrosinase Inhibitors: Mechanistic Approach through Enzyme Inhibition, Molecular Docking, Chemoinformatics, ADMET and Drug-Likeness Studies” (International Journal of Molecular Sciences, 2022).

In general, IC50 refers to the concentration that gives 50% inhibition. Read a low IC50 as greater potency in that assay.

The structures appear in SMILES notation.

The test addresses bacterial tyrosinase (indigenously isolated from Bacillus subtilis NCTC 10400). The test is described as follows: Tyrosinase inhibition assay (dopachrome formation, OD 475 nm). Format: biochemical. The conditions noted are these: L-tyrosine substrate, 25 °C, triplicates, mean ± SD. Here is the method: The target derivatives were evaluated against tyrosinase enzyme (indigenously isolated from Bacillus subtilis NCTC 10400) inhibition. […] Structure-activity relationship (SAR) studies indicate that overall substituent-related tyrosinase activity decreases in the following way: 2-flouro > 2-chloro > 3,4-dichloro > 4-fluoro > 3,4-dimethyl > 2-methoxy > phenyl > 2,4-dimethyl > 2,5-dimethoxy > diethyl.
The bacterial tyrosinase enzyme isolation and preparation were fully described in our previously published paper and in other reported literature. A novel synthesized series of oxadiazole-based furan molecules were screened for anti-tyrosinase activity. Tyrosinase inhibition was investigated by modifying the reported methods of Kim. Briefly, phosphate buffer (0.05 M), L-tyrosine (765 µL; 2 mM) and tested compounds (35 µL) were incubated at ambient temperature for 10 min then bacterial tyrosinase (200 µL; about 48 U/mL) was added and the whole assay solution was allowed to stand at 25 °C for 2 min. The formation of dopachrome was monitored after incubation (2 min) by measuring the increase in optical density (OD) at λmax 475 nm. The stock solution for the entire synthesized series of oxadiazole-based furan moieties (1 mM) was prepared in DMSO (dimethyl sulfoxide). Five different dilutions of each oxadiazole-based furan moiety was prepared. Ascorbic acid (1 mM) was utilized for the standard tyrosinase inhibitor, and the values were expressed as IC50, the concentration of tested samples which caused the 50% inhibition. The percentage (%) of bacterial tyrosinase inhibitory activity was determine by utilizing the formula:(2) % Inhibition=A−BA×100
Here, A represents control enzyme, i.e., without inhibitor, while B represented the test sample, i.e., inhibitor.
The Prism software was used to analyze statistical data, while the results were measured in triplicates and depicted as mean ± SD.

As to `O=C(CSc1nnc(-c2cc3cc(Br)ccc3o2)o1)Nc1ccccc1F` [Compound 5a, 2-((5-(5-Bromobenzofuran-2-yl)-1,3,4-oxadiazol-2-yl)thio)-N-(2-fluorophenyl)acetamide], the IC50 is 11 ± 0.25 µM.
With `O=C(CSc1nnc(-c2cc3cc(Br)ccc3o2)o1)Nc1ccccc1` [Compound 5g, 2-((5-(5-Bromobenzofuran-2-yl)-1,3,4-oxadiazol-2-yl)thio)-N-phenylacetamide], the IC50 amounted to 30 ± 1.5 µM.
The figure for `Cc1ccc(NC(=O)CSc2nnc(-c3cc4cc(Br)ccc4o3)o2)c(C)c1` [Compound 5h, 2-((5-(5-Bromobenzofuran-2-yl)-1,3,4-oxadiazol-2-yl)thio)-N-(2,4-dimethylphenyl)acetamide] is 36 ± 0.25 µM; for `O=C(CSc1nnc(-c2cc3cc(Br)ccc3o2)o1)Nc1ccc(Cl)c(Cl)c1` [Compound 5c, 2-((5-(5-Bromobenzofuran-2-yl)-1,3,4-oxadiazol-2-yl)thio)-N-(3,4-dichlorophenyl)acetamide] it is 12.7 µM; for `O=C(CSc1nnc(-c2cc3cc(Br)ccc3o2)o1)Nc1ccccc1Cl` [Compound 5b, 2-((5-(5-Bromobenzofuran-2-yl)-1,3,4-oxadiazol-2-yl)thio)-N-(2-chlorophenyl)acetamide] it is 12.4 µM.
Consider `COc1ccccc1NC(=O)CSc1nnc(-c2cc3cc(Br)ccc3o2)o1` [Compound 5f, 2-((5-(5-Bromobenzofuran-2-yl)-1,3,4-oxadiazol-2-yl)thio)-N-(2-methoxyphenyl)acetamide], for which the midpoint of inhibition, the IC50, lay at 27 ± 1 µM.
Consider `O=C1O[C@H]([C@@H](O)CO)C(O)=C1O` [Ascorbic acid, reference compound], for which the IC50 was determined as 11.5 ± 1 µM.
For `Cc1ccc(NC(=O)CSc2nnc(-c3cc4cc(Br)ccc4o3)o2)cc1C` [Compound 5e, 2-((5-(5-Bromobenzofuran-2-yl)-1,3,4-oxadiazol-2-yl)thio)-N-(3,4-dimethylphenyl)acetamide] the value was 25 ± 0.75 µM.
In turn, `CCN(CC)C(=O)CSc1nnc(-c2cc3ccccc3o2)o1` [Compound 5j] gave a 50% inhibitory concentration (IC50) of 49.5 ± 0.92 µM.
The figure for `O=C(CSc1nnc(-c2cc3cc(Br)ccc3o2)o1)Nc1ccc(F)cc1` [Compound 5d, 2-((5-(5-Bromobenzofuran-2-yl)-1,3,4-oxadiazol-2-yl)thio)-N-(4-fluorophenyl)acetamide] is 15.5 µM; for `COc1ccc(OC)c(NC(=O)CSc2nnc(-c3cc4cc(Br)ccc4o3)o2)c1` [Compound 5i, 2-((5-(5-Bromobenzofuran-2-yl)-1,3,4-oxadiazol-2-yl)thio)-N-(2,5-dimethoxyphenyl)acetamide] it is 48 ± 0.96 µM.
